# Test results published in patent publication US5723299A, “Somatostatin receptors” (Arch Development Corporation, priority 1995, dated 1998).
# Where two headings read alike, the source gives them in different places.
# Tests used:
# [1] = test system: 58 to 60-kDa somatostatin receptor protein; settings: background; rat brain and AtT-20 cells; cited from earlier work
# [2] = test system: growth hormone, insulin, glucagon, gastric acid and pancreatic exocrine secretion; settings: background, Brazeau et al., 1973, Wass, 1989, cited from earlier work
# [3] = test system: somatostatin receptor proteins (58-kDa, 42-kDa, 27-kDa); settings: background; AtT-20 and GH3 cells; cited from earlier work
# hGPR81 (SSTR1) [4] = molecular target: T1, hGPR81 (SSTR1) (Homo sapiens, UniProt P30872); assay: Ca^2+ efflux in oocytes injected with hGPR81 RNA; format: cell-based; settings: laevis oocytes injected with in vitro transcribed RNA
# T1 construct: in vitro transcribed RNA injected into Xenopus laevis oocytes
# T1 sequence (P30872 whole entry): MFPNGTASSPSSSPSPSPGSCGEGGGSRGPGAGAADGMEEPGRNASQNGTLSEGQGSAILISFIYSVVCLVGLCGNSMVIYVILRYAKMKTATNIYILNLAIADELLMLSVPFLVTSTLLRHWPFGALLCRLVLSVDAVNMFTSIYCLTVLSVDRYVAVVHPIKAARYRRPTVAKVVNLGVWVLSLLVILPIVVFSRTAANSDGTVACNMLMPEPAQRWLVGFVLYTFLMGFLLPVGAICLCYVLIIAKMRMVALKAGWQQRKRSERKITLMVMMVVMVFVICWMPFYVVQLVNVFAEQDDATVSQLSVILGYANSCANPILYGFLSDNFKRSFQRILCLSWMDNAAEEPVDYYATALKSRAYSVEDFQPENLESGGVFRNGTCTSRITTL
# Method: (§1) Since the presence of a short cytoplasmic loop connecting transmembrane segments M5-M6 is a feature of G protein-coupled receptors that bind peptide hormones and neuropeptides (E. M. Ross, 1990), peptides known to regulate hormone secretion from pancreatic islets were tested as ligands for hGPR81. Initial attempts to identify the ligand for hGPR81 by injecting RNA transcribed in vitro into fenopus laevis oocytes (Kayano et al., 1990) and assessing changes in basal or stimulated cAMP levels in response to […] [calcitonin-gene-related peptide, gastric inhibitory polypeptide, glucagon, glucagon-like peptide 1-(7-36 amide), and vasoactive intestinal peptide], or Ca^2+ efflux (Williams et al., 1988) (angiotensin II, bombesin, cholecystokinin, and vasopressin) were unsuccessful. The binding of radiolabeled peptides (galanin, glucagon and somatostatin) to COS-7 cells transiently expressing hGPR81 was attempted, as well.
# hGPR81 (SSTR1) [5] = molecular target: T1, hGPR81 (SSTR1); assay: Changes in basal or stimulated cAMP levels in oocytes injected with hGPR81 RNA; format: cell-based; settings: laevis oocytes injected with in vitro transcribed RNA
# Method: as §1
compound,measurement,setting,value
somatostatin-28: bioactive form of somatostatin derived via tissue-specific proteolytic processing of prosomatostatin (Bachem),binding to 58 to 60-kDa receptor protein,[1],high affinity and specificity
same,inhibition of secretion,[2],"more specific inhibitor of growth hormone, insulin and pancreatic exocrine secretion"
somatostatin-14,binding to 58 to 60-kDa receptor protein,[1],high affinity and specificity
same,inhibition of secretion,[2],relatively more selective for inhibition of glucagon and gastric acid secretion
same,inhibition of secretion,[2]; listed as Somatostatin,potent inhibitor of growth hormone secretion
same,inhibition of labeling of somatostatin receptor proteins,[3],sensitive to inhibition
angiotensin II: peptide known to regulate hormone secretion from pancreatic islets (DRVYIHPF),identification as ligand for hGPR81 by Ca^2+ efflux,hGPR81 (SSTR1) [4],unsuccessful
calcitonin-gene-related peptide,identification as ligand for hGPR81 by changes in basal or stimulated cAMP levels,hGPR81 (SSTR1) [5],unsuccessful
gastric inhibitory polypeptide: peptide known to regulate hormone secretion from pancreatic islets,identification as ligand for hGPR81 by changes in basal or stimulated cAMP levels,hGPR81 (SSTR1) [5],unsuccessful
vasoactive intestinal peptide: peptide known to regulate hormone secretion from pancreatic islets,identification as ligand for hGPR81 by changes in basal or stimulated cAMP levels,hGPR81 (SSTR1) [5],unsuccessful
glucagon-like peptide 1-(7-36 amide),identification as ligand for hGPR81 by changes in basal or stimulated cAMP levels,hGPR81 (SSTR1) [5],unsuccessful
bombesin,identification as ligand for hGPR81 by Ca^2+ efflux,hGPR81 (SSTR1) [4],unsuccessful
Nc1nc2c(ncn2[C@@H]2O[C@H](COP(=O)(O)OP(=O)(O)OP(=O)(O)O)[C@@H](O)[C@H]2O)c(=O)[nH]1 [GTP],inhibition of labeling of somatostatin receptor proteins,[3],sensitive to inhibition
NC(=O)CC[C@@H]1NC(=O)[C@H](Cc2ccccc2)NC(=O)[C@H](Cc2ccc(O)cc2)NC(=O)[C@@H](N)CSSC[C@@H](C(=O)N2CCC[C@H]2C(=O)N[C@@H](CCCN=C(N)N)C(=O)NCC(N)=O)NC(=O)[C@H](CC(N)=O)NC1=O [vasopressin],identification as ligand for hGPR81 by Ca^2+ efflux,hGPR81 (SSTR1) [4],unsuccessful
glucagon: peptide known to regulate hormone secretion from pancreatic islets,identification as ligand for hGPR81 by changes in basal or stimulated cAMP levels,hGPR81 (SSTR1) [5],unsuccessful
